From patent US20050256134A1, “Use of creatine analogues and creatine kinase modulators for the prevention and treatment of glucose metabolic disorders” (AVICENA GROUP, INC., priority 1995, published 2005)

Key:
[1] = test system: NZW rabbits, normal or infected with HCMV in their eyes; assay: Effect of cyclocreatine continuous intravenous infusion on glucose levels in rabbits; assay type: in vivo, rabbit; details: for average glucose levels: 10 and 5 mg/ml
Description: The creatine compound cyclocreatine, was given as a continuous intravenous infusion (IV) to normal rabbits or rabbits infected with the human cytomegalovirus (HCMV) in their eyes (Rabbit Chorioretinal model). Glucose levels were recorded over a period of seven days. This compound was tested in infected as well as in normal animals due to the fact that these compounds were also being evaluated as anti viral agents, a biological activity that were reported in the U.S. Pat. No. 5,321,030. As will become clear in the data presented here the eye infection had no effect on the levels of glucose recorded. The schedule and dose selected in these experiments was based on prior experience working with this class of compounds as antiviral agents.
A total of 11 NZW rabbits weighing 1.75-2.0 Kg were used in the experiments. All animals were infused with various doses of cyclocreatine over a period of 1-7 days in a continuous infusion mode. Continuous infusions were achieved by surgical implantation of an indwelling catheter implant into the jugular vein by standard surgical procedures. The catheter was threaded through a steel sleeve and swivel apparatus attached to the back of the animal's neck which was anchored to a specially fitted vest. A Harvard Apparatus 2200 unifusion pump maintained drug delivery at a constant rate through out the experiment. This arrangement allowed the animal unimpaired movement within its cage. Animals received a bolus injection of antibiotics immediately after surgery and daily if needed. After animals recovered from the anesthesia, some animals were inoculated by intravitreal injection of AD169 HCMV (10^5 pfu). The remaining animals were left uninfected. Both infected and uninfected animals received a continuous infusion of cyclocreatine or saline for up to seven days. Concentrations of cyclocreatine were 5, 10, or 15 mg cyclocreatine/ml saline and infusion rates and volumes were adjusted to achieve the desired dose of 375-1125 mg/Kg/day. These concentrations were based on amounts required to achieve other biological activities such as antiviral or anticancer. […] The rest of the animals received a similar volume of sterile saline. […]

creatine kinase = details: forward reaction, in vitro and in vivo; cited from earlier work
[2] = uninfected, 15 mg/ml (1125 mg/Kg/day), day five

NC1=NCCN1CC(=O)O [cyclocreatine]
Glucose Levels ([1]; 5 mg/ml, HCMV infected, animal 1, day 0): 177 mg/dL | Glucose Levels ([1]; 5 mg/ml, HCMV infected, animal 1, day 1): 104 mg/dL | Glucose Levels ([1]; 5 mg/ml, HCMV infected, animal 1, day 3): 70 mg/dL | Glucose Levels ([1]; 5 mg/ml, HCMV infected, animal 1, day 5): 29 mg/dL | Glucose Levels ([1]; 5 mg/ml, HCMV infected, animal 2, day 0): 177 mg/dL | Glucose Levels ([1]; 5 mg/ml, HCMV infected, animal 2, day 1): 94 mg/dL | Glucose Levels ([1]; 5 mg/ml, HCMV infected, animal 2, day 3): 49 mg/dL | Glucose Levels ([1]; 5 mg/ml, HCMV infected, animal 2, day 5): 41 mg/dL | Glucose Levels ([1]; 5 mg/ml, HCMV infected, animal 3, day 0): 177 mg/dL | Glucose Levels ([1]; 5 mg/ml, HCMV infected, animal 3, day 1): 93 mg/dL | Glucose Levels ([1]; 5 mg/ml, HCMV infected, animal 3, day 3): 47 mg/dL | Glucose Levels ([1]; 5 mg/ml, HCMV infected, animal 3, day 5): 33 mg/dL | Glucose Levels ([1]; 10 mg/ml, HCMV infected, animal 1, day 0): 169 mg/dL | Glucose Levels ([1]; 10 mg/ml, HCMV infected, animal 1, day 1): 118 mg/dL | Glucose Levels ([1]; 10 mg/ml, HCMV infected, animal 1, day 3): 103 mg/dL | Glucose Levels ([1]; 10 mg/ml, HCMV infected, animal 1, day 4): 59 mg/dL | Glucose Levels ([1]; 10 mg/ml, HCMV infected, animal 1, day 5): 45 mg/dL | Glucose Levels ([1]; 10 mg/ml, HCMV infected, animal 2, day 0): 194 mg/dL | Glucose Levels ([1]; 10 mg/ml, HCMV infected, animal 2, day 1): 89 mg/dL | Glucose Levels ([1]; 10 mg/ml, HCMV infected, animal 2, day 3): 98 mg/dL | Glucose Levels ([1]; 10 mg/ml, HCMV infected, animal 2, day 4): 69 mg/dL | Glucose Levels ([1]; 10 mg/ml, HCMV infected, animal 2, day 5): 62 mg/dL | Glucose Levels ([1]; 10 mg/ml, HCMV infected, animal 3, day 0): 201 mg/dL | Glucose Levels ([1]; 10 mg/ml, HCMV infected, animal 3, day 1): 76 mg/dL | Glucose Levels ([1]; 10 mg/ml, HCMV infected, animal 3, day 3): 74 mg/dL | Glucose Levels ([1]; 10 mg/ml, HCMV infected, animal 3, day 4): 87 mg/dL | Glucose Levels ([1]; 10 mg/ml, HCMV infected, animal 3, day 5): 55 mg/dL | Glucose Levels ([1]; 10 mg/ml, HCMV infected, animal 4, day 0): 184 mg/dL | Glucose Levels ([1]; 10 mg/ml, HCMV infected, animal 4, day 1): 81 mg/dL | Glucose Levels ([1]; 10 mg/ml, HCMV infected, animal 4, day 3): 85 mg/dL | Glucose Levels ([1]; 10 mg/ml, HCMV infected, animal 4, day 4): 65 mg/dL | Glucose Levels ([1]; 10 mg/ml, HCMV infected, animal 4, day 5): 53 mg/dL | Glucose Levels ([1]; 15 mg/ml, not infected, animal 1, day 0): 177 mg/dL | Glucose Levels ([1]; 15 mg/ml, not infected, animal 1, day 3): 48 mg/dL | Glucose Levels ([1]; 15 mg/ml, not infected, animal 2, day 0): 177 mg/dL | Glucose Levels ([1]; 15 mg/ml, not infected, animal 2, day 3): 59 mg/dL | Glucose Levels ([1]; 15 mg/ml, not infected, animal 2, day 5): 7 mg/dL | Glucose Levels ([1]; 15 mg/ml, not infected, animal 3, day 0): 177 mg/dL | Glucose Levels ([1]; 15 mg/ml, not infected, animal 3, day 5): 22 mg/dL | Glucose Levels ([1]; 15 mg/ml, not infected, animal 3, day 6): 22 mg/dL | Glucose Levels ([1]; 15 mg/ml, not infected, animal 3, day 7, (10 ml/rabbit 20% Dextrose)): 73 mg/dL | Glucose Levels ([1]; ave 5 mg/ml, HCMV infected, day 0): 177 mg/dL | Glucose Levels ([1]; ave 5 mg/ml, HCMV infected, day 1): 97 mg/dL | Glucose Levels ([1]; ave 5 mg/ml, HCMV infected, day 3): 55 mg/dL | Glucose Levels ([1]; ave 5 mg/ml, HCMV infected, day 5): 34 mg/dL | Glucose Levels ([1]; ave 10 mg/ml, HCMV infected, day 0): 187 mg/dL | Glucose Levels ([1]; ave 10 mg/ml, HCMV infected, day 1): 91 mg/dL | Glucose Levels ([1]; ave 10 mg/ml, HCMV infected, day 3): 90 mg/dL | Glucose Levels ([1]; ave 10 mg/ml, HCMV infected, day 4): 70 mg/dL | Glucose Levels ([1]; ave 10 mg/ml, HCMV infected, day 5): 54 mg/dL | Glucose Levels ([1]; ave 15 mg/ml, not infected, day 0): 177 mg/dL | Glucose Levels ([1]; ave 15 mg/ml, not infected, day 3): 54 mg/dL | Glucose Levels ([1]; ave 15 mg/ml, not infected, day 5): 15 mg/dL | Glucose Levels ([1]; ave 15 mg/ml, not infected, day 6): 22 mg/dL | Glucose Levels ([1]; ave 15 mg/ml, not infected, day 7, (10 ml/rabbit 20% Dextrose)): 73 mg/dL | blood glucose levels ([1]; infected, 10 mg/ml (750 mg/Kg/day) and 5 mg/ml (375 mg/Kg/day)): significant drop in blood glucose levels | average glucose levels ([1]; infected, day five): 30 to 50 mg/dL | average glucose levels ([1]; infected, day one): ~90 mg/dL | Glucose Levels ([1]; uninfected, 15 mg/ml (1125 mg/Kg/day)): significant drop in their glucose levels | Glucose Levels [1, 2]: 7 to 22 mg/dL | condition of the animals [1, 2]: very lethargic | Glucose Levels ([1]; uninfected, 15 mg/ml (1125 mg/Kg/day), day three): 48 to 59 mg/dL | level of glucose after 10 mls of a 20% solution of dextrose ([1]; uninfected, 15 mg/ml, day 7): 70 mg/dL | phosphorylation by creatine kinase (creatine kinase): phosphorylated efficiently
